Experimental findings from ChEMBL document CHEMBL3351880, “Unexpected DNA affinity and sequence selectivity through core rigidity in guanidinium-based minor groove binders” (J Med Chem, 2014) are described below.

Calls of active or inactive are those of the source. No cut-off for these calls is given here.

Test [1] can be described thus: Binding affinity to AATT DNA hairpin sequence (unknown origin) by SPR assay.
Test [2] in a line: Binding affinity to (AT)4 DNA hairpin sequence (unknown origin) by SPR assay. On the technique in general: In SPR one partner is held on a chip, and binding of the other changes the refractive index at the surface.
A short description of test [3]: Binding affinity to (CG)4 DNA hairpin sequence (unknown origin) by SPR assay.
A short description of test [4]: Selectivity index, ratio of binding affinity to (AT)4 DNA hairpin sequence (unknown origin) to binding affinity to AATT DNA hairpin sequence (unknown origin).
The subject of test [5] is Salmonidae. Briefly: Binding affinity to salmon sperm DNA assessed as increase in DNA thermal melting temperature at 15 uM spectrophotometry.
Test [6] is described as follows: Binding affinity to poly(dA.dT)2 oligonucleotide DNA (unknown origin) assessed as increase in DNA thermal melting temperature at 15 uM spectrophotometry.
Test [7] can be described thus: Binding affinity to poly(dA).poly(dT) oligonucleotide DNA (unknown origin) assessed as increase in DNA thermal melting temperature at 15 uM spectrophotometry.
The subject of test [8] is Salmonidae. Briefly: Binding affinity to salmon sperm DNA assessed as change in ICD signals by CD spectroscopy.
Test [9] is described as follows: Binding affinity to poly(dA.dT)2 oligonucleotide DNA (unknown origin) assessed as change in ICD signals by CD spectroscopy.
In test [10] the test system is Salmonidae. Description: Binding affinity to salmon sperm DNA by UV spectroscopy.
The nature of test [11]: Binding affinity to poly(dA.dT)2 oligonucleotide DNA (unknown origin) by UV spectroscopy.
The nature of test [12]: Binding affinity to poly(dG.dC)2 oligonucleotide DNA (unknown origin) by UV spectroscopy.
A short description of test [13]: Binding affinity to poly(dG.dC)2 oligonucleotide DNA (unknown origin) assessed as change in ICD signals by CD spectroscopy.

`c1cc(C2CCN(c3ccc(NC4=NCCN4)cc3)CC2)ccc1NC1=NCCN1`: the K in test [1] stood at 1.1 ×10⁵ /M; in [2] it was 1.4 ×10⁵ /M; in test [3], 1.5 ×10⁵ /M. Also, the Selectivity Index in test [4] is under 2.4.

Regarding `c1cc(NC2=NCCN2)ccc1CCc1ccc(NC2=NCCN2)cc1`, the K is under 1 ×10⁵ /M in [1], 1 ×10⁵ /M in [2] and under 1 ×10⁵ /M in [3]. In test [4], the Selectivity Index is under 2.4.

For `c1cc(NC2=NCCN2)cc(Oc2ccc(NC3=NCCN3)cc2)c1`, the K in test [1] was under 1 ×10⁵ /M; in test [2], 1.5 ×10⁵ /M; in test [3], under 1 ×10⁵ /M. For the same molecule, the Selectivity Index in test [4] is under 2.4.

As to `c1cc2c(cc1NC1=NCCN1)Cc1ccc(NC3=NCCN3)cc1-2`, the K in test [1] is 15 ×10⁵ /M; in test [2], 36.2 ×10⁵ /M; in test [3] it was 6.5 ×10⁵ /M; with Salmonidae [10] it was 1.9 ×10⁵ /M; in test [11] it was 14 ×10⁵ /M; in test [12] it was 9.2 ×10⁵ /M. The figures for the ΔTm (with Salmonidae [5]; in test [6]; in test [7]) were 9 °C, 26 °C and 31 °C, respectively. The Selectivity Index in test [4] is under 2.4. Moreover, the outcome (in the test with Salmonidae [8]; in [9]) was Active.

With `Nc1ccc2cc3ccc(N)cc3nc2c1`, the K came out at 5.7 ×10⁵ /M in test [1], 12.2 ×10⁵ /M in test [2] and 6.5 ×10⁵ /M in test [3]. The Selectivity Index in test [4] was under 2.4.

Turning to `c1cc(NC2=NCCN2)cc(Sc2ccc(NC3=NCCN3)cc2)c1`, the K in test [1] came to 1.6 ×10⁵ /M; in test [2] it was 3.2 ×10⁵ /M; in test [3], 2.5 ×10⁵ /M. The Selectivity Index in test [4] was under 2.4.

Consider `c1cc2c(cc1NC1=NCCN1)Cc1ccc(NC3=NCCN3)cc1C2`, for which the K in test [1] is 2.7 ×10⁵ /M; in test [2], 5.1 ×10⁵ /M; in test [3] it was 5.5 ×10⁵ /M. For the same molecule, the shift in melting temperature (ΔTm) amounted to 20 °C with Salmonidae [5], 1 °C in test [6] and 12 °C in [7]. In addition, in [4], the Selectivity Index was under 2.4. The result (in the test with Salmonidae [8]; in test [9]) was inactive.

Turning to `N=C(N)Nc1ccc2c(c1)Cc1ccc(NC(=N)N)cc1C2`, the ΔTm with Salmonidae [5] was 4 °C; in test [6], -3 °C; in [7] it was 4 °C. For the same molecule, the outcome (with Salmonidae [8]; in test [9]) was inactive.

As for `N=C(N)Nc1ccc2c(c1)Cc1ccc(NC3=NCCN3)cc1-2`, the ΔTm stood at 4 °C with Salmonidae [5], 22 °C in test [6] and 20 °C in [7]. The result (in the test with Salmonidae [8]; in [9]; in [13]) was Active.

In general, ΔTm refers to the change in melting temperature against a reference sample.
